Assay results published in article PMC3328416 (2012).

Biological target: T1, glutathione peroxidase 1 (GPx-1) (Bos taurus, UniProt P00435)
T1 sequence (P00435 1-205): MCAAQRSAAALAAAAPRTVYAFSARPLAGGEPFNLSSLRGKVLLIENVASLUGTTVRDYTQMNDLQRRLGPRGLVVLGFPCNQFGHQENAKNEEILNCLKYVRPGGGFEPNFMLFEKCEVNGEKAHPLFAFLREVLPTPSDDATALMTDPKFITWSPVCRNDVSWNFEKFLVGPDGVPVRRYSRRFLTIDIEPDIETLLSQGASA
Assay: immobilized enzyme inactivation, GR-coupled NADPH assay at […] nm after wash-out
Type: biochemical

SMILES: CCN1C(=O)C=CC1=O [NEM, N-ethylmaleimide]
- IC50: 8.77 mM
